Assays:
C2C12 myotubes = conditions: cited from earlier work
[1] = after HMB is fed; cited from earlier work
[2] = Study 2: plasma HMB and urinary HMB excretion over 24 h; format: in vivo, human
Excerpt: Human subjects. In study 1, four male and four female college-aged subjects were studied. In study 2, an additional four male and four female college-aged subjects were studied. The protocols for both studies were approved by the Iowa State University IRB and each subject gave informed consent to participate in the study. Due to the nature of the treatments, neither the subjects nor the researchers could be blinded.
Treatments. The same treatments were given to the subjects in both study groups. The three treatments were given in random order to each subject with at least a one week washout period between treatments. The treatments were supplied by Metabolic Technologies, Inc. (MTI, Ames, Iowa) and were prepared with food grade ingredients. One gram of CaHMB or the equivalent HMB in free acid in a gel form was administered to the subjects. The CaHMB capsules were obtained from a commercial supplement manufacturer (Optimum Nutrition, Aurora, Ill.) while the HMB-acid gel was prepared at MTI laboratories. Briefly, the HMB-acid was adjusted to a pH 4.5 with potassium carbonate (K2CO3) and flavors and sweeteners were then added. The 1.0 g CaHMB capsule was taken with 355 mL of water (approx. 12 oz.). The free acid gel dosage was 0.80 g and was equivalent to the free acid contained in the CaHMB in the capsule. The free acid gel treatments were either swallowed (FASW) or held sublingual for 15 seconds and then swallowed (FASL). FASW consisted of expelling the entire dose into the mouth in a 3 ml syringe, swallowing, and then following this with 355 mL of water. FASL subjects were instructed to place the entire dosage under the tongue and hold the dosage for 15 sec before swallowing. They then rinsed and followed the dose with 355 mL of water.
Study 2 design. Study 2 was conducted similar to study 1 with the following modifications. In study 2, plasma levels of HMB were measured for 1440 min (24 h) and total urine collection was also performed for measurement of urinary HMB excretion during this period. After the 180 min blood sample, the subjects were allowed to leave the laboratory and were instructed to return to the laboratory for additional blood samples at 360, 720, and 1440 min after the ingestion of the supplement. As in study 1, each subject took each of the treatments with at least a one week washout period between treatments. Samples were again stored frozen at −70° C. for analysis of plasma and urinary HMB concentrations. Pre-ingestion, 180 min and 1440 min blood samples were again assayed for the same measurements already for study 1. Subjects were provided with a standardized lunch after the 180 min blood sampling and instructed to eat this at approximately 240 min post ingestion. Following the 720 min blood sample, subjects were instructed to eat a normal evening meal before 10 pm. Subjects reported back to the laboratory the following morning for the fasted 1440 min blood sample. A urine collection container was provided and subjects collected all urine produced during the experimental 24 h experimental period. The urine was stored refrigerated when not being collected. Urine volumes were measured and samples of the total urine collection were taken and stored frozen at −70° C. until analyzed for HMB.
HMB analysis. Plasma and urine HMB were analyzed by gas chromatography/mass spectrometry (GC/MS) as previously described.(27)
Calculations and statistics. Areas under the curves were calculated for each subject using the trapezoidal method that sums the area above baseline.(51) Half-life of plasma HMB was calculated for study 2. The following equations were used:
k=(ln(Cpeak)−ln(Ctrough))/Tinterval
Peak plasma concentrations for each subject were used for Cpeak. […] Tpeak was the time at which Cpeak was measured and Tinterval is the time from Tpeak until the time at Ctrough (720 min). The extracellular fluid compartment was assumed to be 20% of body weight and calculated using equation 3 below(1). […]

[3] = system: protein degradation in muscle; assay: Urinary 3-methylhistidine to creatinine ratio after an acute exercise bout; format: in vivo, human
Experimental: (§1) Subjects: We conducted a study at the Iowa State University Health and Human Performance Laboratory; this study was approved by the Iowa State University Institutional Review Board, and was registered at ClinicalTrials.gov (NCT01150526). We recruited 12 men and 13 women between the ages of 20 and 36 from the Iowa State University community and surrounding area.
(§2) Treatments: The experimental design is depicted in FIG. 8.
Five treatments were administered as follows: Treatment 1: Placebo. This group received a placebo capsule and a placebo syringe dosage at each dosage administration. Treatment 2: CaHMB pre-exercise. This group received a CaHMB capsule and a placebo syringe dosage 30 min prior to the acute exercise bout. The remaining additional dosages during the study consisted of one placebo capsule and one placebo syringe dosage. Treatment 3: HMB-acid gel pre-exercise. This group received a placebo capsule and a syringe dosage of HMB-acid gel 30 min prior to the acute exercise bout. The remaining additional dosages during the study consisted of one placebo capsule and one placebo syringe dosage. Treatment 4: CaHMB pre- and post-exercise. This group received a CaHMB capsule and a placebo syringe dosage at all administration times during the study. Treatment 5: HMB-acid gel pre- and post-exercise. This group received a syringe dosage of HMB-acid gel and one placebo capsule at all administration times during the study.
To blind the treatments to both the researchers and subjects, each subject took a capsule and syringe dosage of supplement at each administration. The capsules contained either one gram of calcium lactate (Placebo) or one gram of calcium β-hydroxy-β-methylbutryate (CaHMB). The syringe dosages were formulated to be similar in taste and appearance and contained either 0.8 g of corn syrup (Placebo) or 0.8 g of β-hydroxy-β-methylbutryate free acid, the same amount of HMB as in the capsule dosage. The 3 daily doses provided the same total HMB dosage (2.4 g as calcium HMB in the capsules or 2.4 g as HMB free acid in the syringes).
Eccentric Exercise Bout: Subjects refrained from vigorous exercise for three days before reporting to the laboratory. All subjects were studied after an overnight fast. […] Subjects then consumed their assigned supplement and 30 minutes later the eccentric exercise session was performed. The exercise consisted of 50 maximal effort contractions of knee extensors while attempting to resist the Biodex lever arm as it moves the knee joint from full extension to 90 degrees flexion; this is similar to letting a heavy weight down slowly while in a seated position. Each contraction lasted about 2 seconds and 12 seconds were allowed between contractions. This protocol was performed on the right leg followed by the left leg. The subjects received 2 more daily dosages of treatment (placebo or HMB) with instructions to take the dosages at lunch and dinner. For the next 4 days the subjects returned to the laboratory fasted each morning, had blood taken and urine collected and then consumed the morning dosage of their supplement. The subjects were again given the 2 remaining daily supplement dosages with instructions to take them at lunch and dinner.
(§3) Serum and Urine Samples: A fasting blood sample was taken from a superficial forearm vein each morning when the subjects reported to the laboratory for testing. Additionally a clean catch urine sample was collected at this time. Serum CPK was analyzed by a commercial laboratory (Quest Diagnostics, Madison N.J.). Urine 3-Methylhistidine (3MH) was analyzed by a previously published GC/MS method (9). Urinary creatinine was analyzed by colorimetric assay (Cayman Chemical Company, Ann Arbor, Mich.). The urinary 3MH data was normalized to urinary creatinine and expressed as 3MH:creatinine ratio, μmol:mg.
(§4) Statistics: Data were analyzed using the mixed model procedure in Statistical Analysis System for Windows (Release 9.1.3, SAS Institute, Cary, N.C.). […]

muscle damage = assay: Serum CPK after an acute eccentric exercise bout; format: in vivo, human; conditions: pre- and post exercise dosing (Treatment 5)
Experimental: as §1, §2
Five treatments were administered as follows: Treatment 1: Placebo. This group received a placebo capsule and a placebo syringe dosage at each dosage administration. Treatment 2: CaHMB pre-exercise. […]
as §3, with “Additionally a clean catch urine sample was collected at this time.” left out
as §4

Structure (SMILES): CC(C)(O)CC(=O)O [HMB, β-Hydroxy-β-methylbutyrate]
- phosphorylation of 4EBP1Thr65/70 (C2C12 myotubes): +51%
- phosphorylation of AKTSer473 (C2C12 myotubes): +129%
- phosphorylation of S6K1Thr389 (C2C12 myotubes): +50%
- AKT phosphorylation (C2C12 myotubes; incubation with rapamycin): +188%
- loss of HMB to urine [1]: 20-50%

Structure (SMILES): CC(C)(O)CC(=O)O [HMB-acid gel, β-hydroxy-β-methylbutryate free acid]
- increase in HMB plasma clearance compared with CaHMB ([2]; Study 2): 25%
- AUC greater than for CaHMB capsules ([2]; Study 2, over 24 hours, listed as free acid gel): +14.8%
- estimated amount of HMB retained greater than CaHMB ([2]; based upon plasma clearance): 25%
- peak plasma level earlier than with CaHMB ([2]; free acid versus CaHMB): ~90 min
- plasma level relative to oral CaHMB ([2]; peak levels): ~2 fold
- 3MH:Cr ([3]; Baseline, dosed pre- and post exercise (Treatments 4, 5)): 0.225 ± 0.034 µmol/mg
- 3MH:Cr ([3]; Baseline, dosed pre-exercise only (Treatments 2, 3)): 0.173 ± 0.028 µmol/mg
- 3MH:Cr ([3]; at 24 h, dosed pre- and post exercise (Treatments 4, 5)): 0.213 ± 0.025 µmol/mg
- 3MH:Cr ([3]; at 24 h, dosed pre-exercise only (Treatments 2, 3)): 0.213 ± 0.037 µmol/mg
- 3MH:Cr ([3]; at 48 h, dosed pre- and post exercise (Treatments 4, 5)): 0.208 ± 0.012 µmol/mg
- 3MH:Cr ([3]; at 48 h, dosed pre-exercise only (Treatments 2, 3)): 0.190 ± 0.014 µmol/mg
- 3MH:Cr ([3]; at 72 h, dosed pre- and post exercise (Treatments 4, 5)): 0.175 ± 0.013 µmol/mg
- 3MH:Cr ([3]; at 72 h, dosed pre-exercise only (Treatments 2, 3)): 0.172 ± 0.013 µmol/mg
- 3MH:Cr ([3]; at 96 h, dosed pre- and post exercise (Treatments 4, 5)): 0.186 ± 0.043 µmol/mg
- 3MH:Cr ([3]; at 96 h, dosed pre-exercise only (Treatments 2, 3)): 0.202 ± 0.020 µmol/mg
- protein degradation (3MH:Cr ratio), trend ([3]; pre- and post exercise dosing): no increase and even a decrease in protein degradation
- blunting of the exercise-induced increase in serum CPK (muscle damage; 24 h post exercise, P<0.03): up to 64%
- blunting of the exercise-induced increase in serum CPK (muscle damage; 48 h post exercise, P<0.005): 86%

Structure (SMILES): CC(C)C[C@H](N)C(=O)O [leucine]
- phosphorylation of S6K1Thr389 (C2C12 myotubes): +17%
